Assay results: PubChem BioAssay (NCI)
Where “and” joins values, the source holds several entries; their conditions need not be identical. Equal values may be shown once.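 Interpolation was linear, between the two tested concentrations surrounding the appropriate level; five concentrations were tested over 48 hours in 96-well plates. GI50: concentration for 50% inhibition of growth. TGI denotes the concentration required for complete inhibition of growth.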

Assays:
Test in all cases: DTP human tumour cell line panel, 48 h
[1] = tested on: SK-OV-3 ovarian
[2] = tested on: HS 578T breast
[3] = tested on: NCI-H460 lung
[4] = tested on: SK-MEL-2 melanoma
[5] = tested on: OVCAR-8 ovarian
[6] = tested on: IGROV1 ovarian
[7] = tested on: SN12C renal
[8] = tested on: NCI/ADR-RES ovarian
[9] = tested on: K-562 leukemia
[10] = tested on: EKVX NSCLC

Structure (SMILES) | GI50 [1] | TGI [1] | GI50 [2] | TGI [2] [µM] | GI50 [3] | TGI [3] | GI50 [4] | TGI [4] | GI50 [5] | TGI [5] | GI50 [6] | TGI [6] | GI50 [7] | TGI [7] | GI50 [8] | TGI [8] | GI50 [9] | TGI [9] [µM] | GI50 [10] | TGI [10]
CC1SC2(CCC(c3ccccc3)CC2)N(NC(=O)c2[nH]c3ccc(F)cc3c2-c2ccccc2)C1=O (stereo not drawn) | 54.3 µM | > 100 µM | 12 µM | 68.3 | 4.28 µM | 40.2 µM | 14 µM | 38.6 µM | 2.87 µM | 19 µM | 3.89 µM | 20 µM | 3.56 µM | 12.7 µM | 3.58 µM | 23.4 µM | 2.11 µM | 6.1 | 12.4 µM | 54.2 µM
CCCCCCCCCCC/C=C\C[C@H](O)C/C=C1/C(=O)C=C[C@@H]1C/C=C\CCCC(=O)OC | 5.78 µM | 21.5 µM | 0.986 µM | 6.1 | 1.11 µM | 3.91 µM | 1.46 µM | 5.67 µM | 0.966 µM | 4.64 µM | 0.742 µM | 2.66 µM | 0.841 µM | 2.29 µM | 0.925 µM | 2.93 µM | 0.898 µM | 3.2 | 0.766 µM | 2.04 µM
c1ccc(Nc2nc(-c3ccccn3)cs2)nc1 | 0.74 µM | > 100 µM | 2.91 µM | > 100 | 0.29 µM | 2.61 µM | 0.442 µM | 30.4 µM | 0.395 µM | > 38.5 µM | 0.464 µM | 5.8 µM | 0.873 µM | > 100 µM | 0.103 µM | 2.89 µM | 0.413 µM | > 57.2 | 0.507 µM | > 56.9 µM
CCC(C)[C@H](NC(=O)NC(=O)NC(=O)CI)C(=O)OC (stereo partly drawn) | 17.2 µM | 31.4 µM | 23.5 µM | 73.5 | 17.4 µM | 39.4 µM | 14.2 µM | 27.3 µM | 13.6 µM | 29.3 µM | 3.47 µM | 12.1 µM | 4.28 µM | 20.4 µM | 21.2 µM | 60 µM | 2.03 µM | 4.48 | 16.7 µM | 30.6 µM
NC(=S)N/N=C/c1ccc(N)cn1 |  | > 10 µM |  | > 10 |  | > 10 µM |  | > 10 µM |  | > 10 µM |  | > 10 µM |  | > 10 µM |  | > 10 µM |  | > 10 |  | > 10 µM
O=C1C=CC(=Nc2ccccc2)c2ccccc21 |  | 80.5 µM |  | 88.6 |  | 13.8 µM |  | 8.15 µM |  | 24.6 µM |  | 23.2 µM |  | 25.7 µM |  | 95.4 µM |  | 42.6 |  | 12.9 µM
CN1CC[C@]2(c3cccc(O)c3)CC(=O)/C(=C/c3ccccc3)[C@H]1C2 | 2.81 µM | 8.73 µM |  | 12.1 |  | 6.32 µM | 3.28 µM | 12.6 µM |  | 9.46 µM | 3.38 µM | 12.6 µM |  | 11.4 µM | 2.42 µM | 7.35 µM |  | 17.7 | 3.57 µM | 13.9 µM
Cc1cc2nc3ccc(=[N+](C)C)cc-3sc2cc1N | 1.98 µM and 3.01 µM | 8.08 µM and 34.8 µM and 10.9 µM | 1.49 µM and 0.311 µM |  | 0.457 µM and 1.56 µM | 7.56 µM and 24.5 µM and 11.8 µM | 1.31 µM and 2.26 µM | 5.62 µM and 17 µM and 8.27 µM | 0.27 µM and 0.8 µM | 1.99 µM and 7.22 µM and 7.3 µM | 1.53 µM and 1.81 µM | 5.18 µM and 20.2 µM and 5.32 µM | 0.821 µM and 1.15 µM | 3.7 µM and 10.6 µM and 2.52 µM | 0.272 µM and 0.265 µM | 3.61 µM and 7.98 µM and 1.49 µM | 0.201 µM and 0.318 µM |  | 2.12 µM and 1.72 µM | 9.09 µM and 17.2 µM and 8.02 µM
N#CC1(Nc2ccc(-c3ccc(NC4(C#N)CCCC4)cc3)cc2)CCCC1 |  | > 100 µM |  | > 100 |  | > 100 µM |  | > 100 µM |  | > 100 µM |  | > 100 µM |  | > 100 µM |  | > 100 µM |  | > 100 |  | > 100 µM
